Patent publication US6653478B2, “Substituted benzimidazol-2-ones as vasopressin receptor antagonists and neuropeptide Y modulators” (Ortho-McNeil Pharmaceutical, Inc., priority 2000, dated 2003)
Counter-ions that a name gives are not always drawn.

Columns and labels:
NPY2 receptors = molecular target: T1, NPY2 receptors (Homo sapiens, UniProt P49146); assay: Neuropeptide Y receptor binding assay (125I-PYY, KAN-TS cell membranes); details: 10 μM compound; read-out: NPY-2@10, % Inh
T1 construct: Cell Membranes from KAN-TS cells having NPY2 receptors; endogenous in cells; host or cells: KAN-TS cells (membranes)
T1 sequence (P49146 1-381): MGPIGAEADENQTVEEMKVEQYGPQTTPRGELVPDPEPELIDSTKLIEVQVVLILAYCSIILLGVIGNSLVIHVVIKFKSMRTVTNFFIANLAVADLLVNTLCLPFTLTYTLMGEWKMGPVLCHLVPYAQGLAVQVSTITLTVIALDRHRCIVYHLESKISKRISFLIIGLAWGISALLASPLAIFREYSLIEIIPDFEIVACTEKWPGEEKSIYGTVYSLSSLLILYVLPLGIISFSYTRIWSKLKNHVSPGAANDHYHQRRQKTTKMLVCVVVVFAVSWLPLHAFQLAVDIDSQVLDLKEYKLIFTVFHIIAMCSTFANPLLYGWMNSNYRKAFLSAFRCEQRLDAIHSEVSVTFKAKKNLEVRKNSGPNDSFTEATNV
Procedure: Neuropeptide Y Receptor Binding Assay
Load 96-well RIA racks with RIA vials (Sarstedt, cat. #73.1055)
Prepare membranes—use 2×15 cm confluent plates/96-well assay plate
Add 14 mls Homogenization buffer/cell pellet
Homogenize at high speed for 15 seconds
Transfer to 15 ml conical tube and spin 5′ at 4° C. at setting 3 in RT6000 centrifuge
Transfer supernatant to 30 ml Corex tube
Balance and spin 25′ at 15,000 rpm at 4° C.
Resuspend pellet in 10 mls Binding buffer
Homogenize at high speed for 15 sec.
Bring volume up to 50 mls in Binding buffer (25 mls/2×96-well plates)
Keep on ice until use or freeze in aliquots (2 plates/tube) in −70° C.
Prepare ^125I-PYY (for 2×96-well compound plates)
Dilute 50 uCi ^125I-PYY in 1 ml H2O
Add 0.4 ml 10% BSA to 20 ml Binding buffer
Add 150 μl ^125I-PYY, mix well
NSB (1 μM PYY final conc.): 40 μl PYY (100 μM stock)+60 μl 30% DMSO in HEPES=40 μM PYY—add 5 μl/well
Total Binding: Add 5 μl/well of Compound Diluent
Add 5 μl compound (final conc. @10 μM)
Incubate at R.T. for 1 hr.
Spin plates for 10′ at setting 9 in RT6000 centrifuge
Aspirate supernatant from tubes, add 300 μl PBS and aspirate again.
After plates are washed and aspirated, put individual tubes in 12×75 mm polypropylene carrier tubes. Count on gamma counter.

human V1a receptor = human V1a receptor (Homo sapiens, UniProt P37288); assay: V1a binding assay (3H-AVP displacement, HEK-293 membranes); design: expressed in transfected cells; host or cells: HEK-293 (membranes); details: for inhibition at 0.1 µM: 0.1 μM compound, read-out: V1a % Inh @0.1; for inhibition at 1 µM: 1.0 μM compound, read-out: V1a@1.0, % Inh
Procedure, shortened: (§1)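 Membranes competed against 3H-AVP (40-87 Ci/mmol, 10,000 cpm/well) in 50 mM Tris, 5 mM MgCl2, 0.1% BSA, pH 7.5, with protease inhibitors. Incubated 1 hour at room temperature, then filtered on PEI-presoaked GF/C and scintillation counted. Non-specific binding defined with 1.25 μM AVP.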

human V1b receptor = molecular target: T2, human V1b receptor (Homo sapiens, UniProt P47901); assay: V1b binding assay (3H-AVP displacement, HEK-293 membranes); design: expressed in transfected cells; host or cells: HEK-293 (membranes); details: for inhibition at 10 µM: 10 μM compound, read-out: V1b % Inh @10
T2 sequence (P47901 1-424): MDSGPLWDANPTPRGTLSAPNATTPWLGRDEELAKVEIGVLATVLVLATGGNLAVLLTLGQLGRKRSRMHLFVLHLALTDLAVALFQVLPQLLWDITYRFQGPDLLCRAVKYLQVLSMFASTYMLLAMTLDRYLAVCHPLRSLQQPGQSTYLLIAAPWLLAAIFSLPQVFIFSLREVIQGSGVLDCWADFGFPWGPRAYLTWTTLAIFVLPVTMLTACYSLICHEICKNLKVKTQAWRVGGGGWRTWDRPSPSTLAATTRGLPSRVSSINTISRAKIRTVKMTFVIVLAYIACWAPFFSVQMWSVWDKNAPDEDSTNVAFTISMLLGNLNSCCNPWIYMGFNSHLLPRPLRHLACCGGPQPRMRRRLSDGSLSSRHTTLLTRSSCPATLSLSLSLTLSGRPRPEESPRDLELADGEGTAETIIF
Procedure, shortened: as §1

human V2 receptor = human V2 receptor (Homo sapiens, UniProt P30518); assay: V2 binding assay (3H-AVP displacement, HEK-293 membranes); design: expressed in transfected cells; host or cells: HEK-293 (membranes); details: 1.0 μM compound; read-out: V2@1.0, % Inh
Procedure, shortened: as §1

Sequence of human V1a receptor (P37288 whole entry): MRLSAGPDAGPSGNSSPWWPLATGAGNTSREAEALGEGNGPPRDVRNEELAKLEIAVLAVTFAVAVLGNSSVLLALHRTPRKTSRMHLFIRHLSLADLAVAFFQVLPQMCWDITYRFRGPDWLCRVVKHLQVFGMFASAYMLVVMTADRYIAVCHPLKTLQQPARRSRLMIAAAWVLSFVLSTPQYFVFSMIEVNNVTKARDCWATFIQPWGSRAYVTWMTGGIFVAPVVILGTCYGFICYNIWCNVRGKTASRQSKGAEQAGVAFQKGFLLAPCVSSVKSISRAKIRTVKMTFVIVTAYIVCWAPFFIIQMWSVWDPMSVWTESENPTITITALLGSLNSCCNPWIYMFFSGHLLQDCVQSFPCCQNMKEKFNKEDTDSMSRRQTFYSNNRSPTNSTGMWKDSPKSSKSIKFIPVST
Sequence of human V2 receptor (P30518 whole entry): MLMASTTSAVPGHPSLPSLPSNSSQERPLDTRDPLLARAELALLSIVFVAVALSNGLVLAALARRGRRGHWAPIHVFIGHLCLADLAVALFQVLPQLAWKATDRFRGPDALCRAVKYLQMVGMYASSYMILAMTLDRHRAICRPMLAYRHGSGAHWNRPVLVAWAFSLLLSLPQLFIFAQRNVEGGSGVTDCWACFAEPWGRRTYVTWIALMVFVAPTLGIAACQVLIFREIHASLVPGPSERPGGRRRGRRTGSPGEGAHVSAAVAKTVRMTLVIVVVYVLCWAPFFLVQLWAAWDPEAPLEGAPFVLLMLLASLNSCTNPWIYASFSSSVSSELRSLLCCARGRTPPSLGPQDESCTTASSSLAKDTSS

Row | inhibition at 10 µM (NPY2 receptors) [%] | inhibition at 0.1 µM (human V1a receptor) [%] | inhibition at 10 µM (human V1b receptor) [%] | inhibition at 1 µM (human V2 receptor) [%] | IC50 (human V1b receptor) [nM] | inhibition at 1 µM (human V1a receptor) [%] | IC50 (human V1a receptor) [nM] | SMILES
1 | 2 | 57 | 45 | 0 | – | – | – | NCCCn1c(=O)n(C2CCN(C(=S)NC(c3ccccc3)c3ccccc3)CC2)c2cc(Cl)c(Cl)cc21 [Compound 67, 5,6-Dichloro-1-[(N1-piperidinocarbothioylbenzhydrylamino)-4-yl]-3-(3-aminopropyl)-1,3-dihydro-benzimidazol-2-one]
2 | 11 | 46 | 66 | 0 | 4600 | – | – | COc1ccc(C(NC(=S)N2CCC(n3c(=O)n(CCCN)c4ccccc43)CC2)c2ccc(OC)cc2)cc1 [Compound 68, 1-[(N1-Piperidinocarbothioyl-1,1-di(p-anisyl)methylamino)-4-yl]-3-(3-aminopropyl)-1,3-dihydrobenzimidazol-2-one Hydrochloride]
3 | 40 | – | 27 | 0 | – | 22 | – | NC(=O)CCn1c(=O)n(C2CCN(C(=S)NC(c3ccccc3)c3ccccc3)CC2)c2ccccc21 [Compound 69, 1-[(N1-piperidinocarbothioyldiphenylmethylamino)-4-yl]-3-(2-amidoethyl)-1,3-dihydro-benzimidazol-2-one]
4 | 79 | – | 88 | 0 | 870 | – | 29 | CN(C)CCCn1c(=O)n(C2CCN(C(=S)NC(c3ccccc3)c3ccccc3)CC2)c2ccccc21 [Compound 71, 1-[(N1-piperidinocarbothioylbenzhydrylamino)-4-yl]-3-(3-N,N-dimethylaminopropyl)-1,3-dihydrobenzimidazol-2-one]
5 | 89 | – | – | 0 | 300 | – | 16 | O=c1n(CCCN2CCCC2)c2ccccc2n1C1CCN(C(=S)NC(c2ccccc2)c2ccccc2)CC1 [Compound 73, 1-[(N1-piperidinocarbothioylbenzhydrylamino)-4-yl]-3-(3-N-pyrrolidinopropyl)-1,3-dihydro-benzimidazol-2-one]
6 | 0 | – | 29 | 0 | – | 0 | – | O=C(NCc1ccccc1)N1CCC(n2c(=O)[nH]c3ccccc32)CC1 [Compound 74]
7 | 12 | – | – | 0 | 1000 | 58 | – | O=C(NC(c1ccccc1)c1ccccc1)N1CCC(n2c(=O)[nH]c3ccccc32)CC1 [Compound 75]
8 | 41 | – | 25 | 0 | – | – | 250 | CC(=O)NCCCn1c(=O)n(C2CCN(C(=S)NC(c3ccccc3)c3ccccc3)CC2)c2ccccc21 [Compound 76, 1-[(N1-Piperidinocarbothioyldiphenylmethylamino)-4-yl]-3-(3-acetamidopropyl)-1,3-dihydrobenzimidazol-2-one]
9 | 10 | – | 30 | 0 | – | – | 79 | NCCCn1c(=O)n(C2CCN(C(=O)NC(c3ccccc3)c3ccccc3)CC2)c2ccccc21 [Compound 77, 1-[(N1-Piperidinocarbonyldiphenylmethylamino)-4-yl]-3-(3-aminopropyl)-1,3-dihydrobenzimidazol-2-one]
10 | 74 | – | 41 | 17 | – | 95 | – | CN1CCN(CCCn2c(=O)n(C3CCN(C(=S)NC(c4ccccc4)c4ccccc4)CC3)c3ccccc32)CC1 [Compound 78, 1-[(N1-piperidinocarbothioylbiphenylmethylamino)-4-yl]-3-(3-N-(N-Methylpiperazino)propyl)-1,3-dihydrobenzimidazol-2-one]
